{
  "source": "patent US11293927B2",
  "about": "“Screening methods for PARP modulators” (Ribon Therapeutics, Inc., priority 2018, dated 2022)",
  "assay_type_in_all_cases": "binding",
  "key": {"PARP16": {"target": "T1, PARP16 (Homo sapiens, UniProt Q8N5Y8)", "T1 construct": "made in house; host or cells: E. coli", "T1 sequence (Q8N5Y8 5-279 isoform Q8N5Y8-3)": "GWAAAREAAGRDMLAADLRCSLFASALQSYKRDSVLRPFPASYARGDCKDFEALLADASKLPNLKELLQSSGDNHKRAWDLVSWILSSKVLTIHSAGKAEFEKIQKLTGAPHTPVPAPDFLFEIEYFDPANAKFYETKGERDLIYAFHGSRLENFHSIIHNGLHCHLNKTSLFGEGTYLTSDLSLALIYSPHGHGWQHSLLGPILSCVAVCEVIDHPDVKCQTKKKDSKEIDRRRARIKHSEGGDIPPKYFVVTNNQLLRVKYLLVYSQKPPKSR", "test": "In vitro TR-FRET probe displacement assay (Probe C), PARP16", "conditions": "TR-FRET displacement of Probe C, PARP16 residues 5-279", "protocol": "A portion of PARP16 (residues 5 to 279 of NP_060321.3 (SEQ ID NO: 6), GenBank Accession No. NM_017851) was overexpressed in E. coli cells. An N-terminal fusion tag, […] (SEQ ID NO: 9), was used to purify the protein from cell lysates. The fusion tag was left on the protein for use in the probe displacement assay.\n(§1) Displacement of a Probe C binding to monoPARP active sites was measured using a time-resolved fluorescence resonance energy transfer (TR-FRET) assay. 20 nL of a dose response curve of each test compound was spotted in black 384-well polystyrene proxiplates (Perkin Elmer) using a Mosquito (TTP Labtech). Reactions were performed in an 8 μL volume by adding 6 μL of the monoPARP and Probe C in assay buffer (20 mM HEPES pH=8, 100 mM NaCl, 0.1% bovine serum albumin, 2 mM DTT and 0.002% Tween20), incubating with test compound at 25° C. for 30 min, then adding 2 μL of ULight-anti 6×His and LANCE Eu-W 1024 labeled streptavidin (Perkin Elmer). Binding reactions were equilibrated at 25° C. for an additional 30 min, then read on an Envision platereader equipped with a LANCE/DELFIA top mirror (Perkin Elmer) using excitation of 320 nm and emission of 615 nm and […] with a 90 μs delay. The ratio of the 665/615 nm emission were calculated for each well to determine the amount of complex of monoPARP and Probe C in each well. […]"}, "TIPARP": {"target": "T2, TIPARP (Homo sapiens, UniProt Q7Z3E1)", "T2 construct": "made in house; host or cells: E. coli", "T2 sequence (Q7Z3E1 456-657)": "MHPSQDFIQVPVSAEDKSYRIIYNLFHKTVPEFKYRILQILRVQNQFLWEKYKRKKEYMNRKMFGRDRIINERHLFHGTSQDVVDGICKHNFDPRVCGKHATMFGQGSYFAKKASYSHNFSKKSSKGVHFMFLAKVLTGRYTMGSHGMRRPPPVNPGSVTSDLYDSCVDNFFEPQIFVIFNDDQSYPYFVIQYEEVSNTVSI", "test": "In vitro TR-FRET probe displacement assay (Probe C), TIPARP", "conditions": "TR-FRET displacement of Probe C, TIPARP residues 456-657", "protocol": "A portion of TIPARP (residues 456 to 657 of NP_056323.2 (SEQ ID NO: 1), GenBank Accession No. NM_015508.4) was overexpressed in E. coli cells. An N-terminal fusion tag, […] (SEQ ID NO: 7), was used to purify the protein from cell lysates. The fusion tag was left on the protein for use in the probe displacement assay.\nas §1"}, "PARP10": {"target": "T3, PARP10 (Homo sapiens, UniProt Q53GL7)", "T3 sequence (Q53GL7 808-1025)": "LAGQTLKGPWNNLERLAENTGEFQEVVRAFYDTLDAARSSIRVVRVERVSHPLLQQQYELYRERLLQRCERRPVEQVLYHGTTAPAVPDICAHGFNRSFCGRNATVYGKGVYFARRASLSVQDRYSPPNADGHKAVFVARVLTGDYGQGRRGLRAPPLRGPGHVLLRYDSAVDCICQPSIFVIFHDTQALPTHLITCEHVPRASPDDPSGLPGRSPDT", "test": "In vitro TR-FRET probe displacement assay (Probe C), PARP10", "design": "made in house; host or cells: E. coli", "conditions": "TR-FRET displacement of Probe C, PARP10 residues 808-1025", "protocol": "A portion of PARP10 (residues 808 to 1025 of NP_116178.2 (SEQ ID NO: 2), GenBank Accession No. NM_032789.4) was overexpressed in E. coli cells. An N-terminal fusion tag, MAHHHHHHENLYFQSM (SEQ ID NO: 8), was used to purify the protein from cell lysates. The fusion tag was left on the protein for use in the probe displacement assay.\nas §1"}},
  "data": [
    {"smiles": "O=c1[nH]ncc(N2Cc3ccc(OC4CCNCC4)cc3C2)c1C(F)(F)F", "note": "[Compound A, 5-[5-(Piperidin-4-yloxy)-2,3-dihydro-1H-isoindol-2-yl]-4-(trifluoromethyl)-2,3-dihydropyridazin-3-one]", "values": [
      {"measurement": "IC50", "setting": "PARP16", "result": 100, "unit": "nM"},
      {"measurement": "IC50", "setting": "TIPARP", "result": 7, "unit": "nM"},
      {"measurement": "IC50", "setting": "PARP10", "result": 80, "unit": "nM"}
    ]}
  ]
}
